Data published in patent US9994594B2, “Inhibitors of arginase and their therapeutic applications” (MARS, INCORPORATED, priority 2010, dated 2018).
Structures can show the parent of a compound that is named as a salt. Where two headings read alike, the source gives them in different places.

Columns and labels:
bacterial arginase = conditions: H. pylori; cited from earlier work
[1] = system: experimental autoimmune encephalomyelitis (EAE); conditions: compared with control animals; cited from earlier work
[2] = spontaneously hypertensive animals; cited from earlier work
MDSC = conditions: tumor bearing mice; cited from earlier work
penile erectile response = assay: Erectile dysfunction efficacy model: penile erectile response in vivo
Method: As described hereinabove, the compounds according to the invention are useful in the treatment and prevention of a variety of disorders and conditions that are affected by levels of nitric oxide (NO) regulated, in part, by arginase enzymes. The compounds are assessed for efficacy in such treatment and prevention by their performances in standardized in vivo tests. In vivo models to assess efficacy are developed for this purpose as described below.
The inventive compounds are candidate therapeutics for treating ED, as assessed by measurements of penile erectile response according to a protocol described by Wingard C, Fulton J, and Husain S, J Sex Med 4: 348-363, 2007.

central airways = conditions: murine chronic model; cited from earlier work
human arginase I (ARG I) = molecular target: T1, human arginase I (ARG I) (Homo sapiens, UniProt P05089); assay: Inhibition of arginase I, spectrophotometric urea assay at 530 nm; type: biochemical; conditions: read-out: Potency (ARG I)
T1 sequence (P05089 1-322): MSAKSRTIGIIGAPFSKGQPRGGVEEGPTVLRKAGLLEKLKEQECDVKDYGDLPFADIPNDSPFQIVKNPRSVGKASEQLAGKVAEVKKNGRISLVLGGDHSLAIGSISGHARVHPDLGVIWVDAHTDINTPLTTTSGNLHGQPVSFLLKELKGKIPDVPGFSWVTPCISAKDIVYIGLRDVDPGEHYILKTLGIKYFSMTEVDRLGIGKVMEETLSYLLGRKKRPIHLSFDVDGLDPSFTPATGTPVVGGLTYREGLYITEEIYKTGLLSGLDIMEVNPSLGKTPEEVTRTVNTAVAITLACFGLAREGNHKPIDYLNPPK
Procedure, shortened: (§1)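 IC50 was derived by regression of OD530 normalized to uninhibited-enzyme controls against log concentration. Urea from 60-min, 37 °C turnover of L-arginine with manganese sulfate was detected after acid o-phthaldialdehyde/primaquine quench and 10 min colour development. Arginase I and II came from 100 ng/ml stocks in pH 7.4 phosphate with ovalbumin.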

arginase II (ARG II) = molecular target: T2, arginase II (ARG II) (Homo sapiens, UniProt P78540); assay: Inhibition of arginase II, spectrophotometric urea assay at 530 nm; type: biochemical
T2 sequence (P78540 23-354): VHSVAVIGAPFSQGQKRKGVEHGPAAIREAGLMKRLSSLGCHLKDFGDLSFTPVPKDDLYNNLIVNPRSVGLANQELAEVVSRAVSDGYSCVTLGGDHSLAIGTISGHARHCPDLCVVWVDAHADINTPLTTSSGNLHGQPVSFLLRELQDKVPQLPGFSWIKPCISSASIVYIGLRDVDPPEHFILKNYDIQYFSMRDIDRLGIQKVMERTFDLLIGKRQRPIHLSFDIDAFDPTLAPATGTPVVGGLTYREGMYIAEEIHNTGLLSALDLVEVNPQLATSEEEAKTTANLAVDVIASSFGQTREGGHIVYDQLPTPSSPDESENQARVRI
Procedure, shortened: as §1

[3] = Formula II compounds, Table 2-A
[4] = Formula II compounds, Table 2-A, read-out: Potency (ARG)
[5] = Formula I compounds, Table 2, read-out: Potency (ARG II)

In the case of `NC(=NCCC[C@H](N)C(=O)O)NO` [NOHA], the “CD3 expression on T-cells” value (bacterial arginase) is given as “reestablished CD3 expression on T-cells” and the “production of NO by macrophages” value (bacterial arginase) is given as “enhanced production of NO by macrophages”.

In the case of `NC(CCCCB(O)O)C(=O)O` (centres unmarked) [ABH, amino-6-boronohexanoic acid], the “severity of EAE” value [1] is given as “much milder form of EAE than in control animals”.

In the case of `N=C(NO)NCC[C@H](N)C(=O)O` [nor-NOHA, N^ω-hydroxy-nor-L-arginine], the blood pressure [2] is given as “lowered blood pressure” and the “vascular response of resistance vessels to blood flow and pressure” value [2] is given as “improved the vascular response of resistance vessels to blood flow and pressure”.

For `O=c1[nH]cc(F)c(=O)[nH]1` [5-Fluorouracil], the MDSC immunesuppression (MDSC) is given as “eliminates MDSC immunesuppression” and the tumor growth (MDSC) is given as “delayed tumor growth”.

In the case of `Nc1ccn([C@@H]2O[C@H](CO)[C@@H](O)C2(F)F)c(=O)n1` [gemcitabine], the MDSC immunesuppression (MDSC) is listed as “eliminates MDSC immunesuppression” and the tumor growth (MDSC) is listed as “delayed tumor growth”.

With `N[C@@](CCCCB(O)O)(CCN1CCCCC1)C(=O)O` [Enantiomer of Ex. 13] the “Effect: increased erectile response relative to baseline” value (penile erectile response; @ 2.5 V stimulation) was 0 (0 <10%) and the “eliciting erectile responses in vivo” value (penile erectile response; in words) was “is not”.

In the case of `N[C@@H](CSCCB(O)O)C(=O)O` [S-(2-boronoethyl)-L-cysteine], the “methacholine induced responsiveness of the central airways” value (central airways) is listed as “attenuated”.

Molecule `NC(CCCCB(O)O)(C(=O)O)C1CCN(Cc2ccccc2C(F)(F)F)CC1` (centres unmarked) [Example 53-A, 2-amino-6-borono-2-(1-(2-(trifluoromethyl)benzyl)piperidin-4-yl)hexanoic acid dihydrochloride] has an IC50 (human arginase I (ARG I); [3]) of 251 to 1000 nM and an IC50 (arginase II (ARG II); [4]) of 251 to 1000 nM.

With `NC(CCCCB(O)O)(C(=O)O)C1CCN(c2nc3ccc(Cl)cc3o2)CC1` (centres unmarked) [4-A, 2-amino-6-borono-2-[(6-chlorobenzoxazol-2-yl)-piperidin-4-yl)-hexanoic acid hydrochloride] the IC50 (human arginase I (ARG I); [3]) was 251 to 1000 nM and the IC50 (arginase II (ARG II); [4]) was 1000 to 2000 nM.

In the case of `CN(CC[C@](N)(CCCCB(O)O)C(=O)O)C[C@@H](O)c1cccc(O)c1` [compound 12, (R)-2-amino-6-borono-2-(2-(((S)-2-hydroxy-2-(3-hydroxyphenyl)ethyl)(methyl)amino)ethyl)hexanoic acid dihydrochloride], the IC50 (human arginase I (ARG I); Formula I compounds, Table 2) is reported as 0.1 to 250 nM and the IC50 (arginase II (ARG II); [5]) is reported as 0.1 to 250 nM.

With `NC(CCCCB(O)O)(C(=O)O)C1CCN(Cc2ccc(Cl)c(F)c2)CC1` (centres unmarked) [Example 49-A, 2-amino-6-borono-2-(1-(4-chloro-3-fluorobenzyl)piperidin-4-yl)hexanoic acid] the IC50 (human arginase I (ARG I); [3]) was 251 to 1000 nM and the IC50 (arginase II (ARG II); [4]) was 0.1 to 250 nM.

`NC(CCCCB(O)O)(C(=O)O)C1CCN(c2cc(C(F)(F)F)nc3ccccc23)CC1` (centres unmarked) [3-A, 2-amino-6-borono-2-[(2-Trifluoromethyl-quinolin-4-yl)-piperidin-4-yl)-hexanoic acid hydrochloride] showed an IC50 (human arginase I (ARG I); [3]) of 1000 to 2000 nM and an IC50 (arginase II (ARG II); [4]) of 1000 to 2000 nM.

For `O=C(O)C(CCCCB(O)O)NCc1ccc(Cl)cc1` (centres unmarked) [compound 145, 6-borono-2-(4-chlorobenzylamino)hexanoic acid hydrochloride], the IC50 (human arginase I (ARG I); Formula I compounds, Table 2) was 1000 to 2000 nM and the IC50 (arginase II (ARG II); [5]) was 1000 to 2000 nM.

Work on `CN(CCc1ccccc1)CC[C@](N)(CCCCB(O)O)C(=O)O` [compound 11, (R)-2-amino-6-borono-2-(2-(methyl(phenethyl)amino)ethyl) hexanoic acid dihydrochloride] yielded an IC50 (human arginase I (ARG I); Formula I compounds, Table 2) of 0.1 to 250 nM and an IC50 (arginase II (ARG II); [5]) of 0.1 to 250 nM.
